# Reference: patent US20060172890A1, “Liquid formulation of a plant growth regulator” (priority 2004, published 2006)
# Like-named read-outs stand apart in the source and are kept apart here.
# What was measured:
# [1] = Solubility of GA in solvents and solvent blends; format: physicochemical
# Description: Gibberellic acid (GA) of 92% purity as a dry powder was used in these laboratory studies. The solvents and reagents were of reagent grade purity.
# Also, the GA was easier to dissolve in the solvent blends because they were not as viscous as the single solvents. Moreover, the solvent blends had high flash points. A flash point above 140° F. is very desirable because there are less regulatory restrictions on manufacturing, transportation, and storage.
# [2] = system: corn, green bean, cucumber, tomato, ryegrass and hosta seedlings; assay: Phytotoxicity of sprayed aqueous solvents, greenhouse tests; format: in vivo; conditions: sprayed 1 to 2% aqueous solutions; greenhouse tests with seedlings
# Description: (§1) The potential for phytotoxicity (plant injury) by spraying 1 to 2% aqueous solutions of ethyl lactate and solvent blends with ethyl lactate, as well as other ingredients such as glycerol and soy methyl esters was evaluated in field tests with apple trees and in greenhouse tests with corn, green bean, cucumber, tomato, ryegrass and hosta seedlings.
# apple trees = assay: Phytotoxicity of sprayed aqueous solvents, field tests; format: in vivo; conditions: sprayed 1 to 2% aqueous solutions; field tests with apple trees
# Description: as §1
# dwarf morning glory = conditions: cited from earlier work
# pea seedlings = conditions: cited from earlier work
molecule,measurement,setting,value
"C=C1C[C@]23C[C@@]1(O)CC[C@H]2[C@@]12C=C[C@H](O)[C@@](C)(C(=O)O1)[C@H]2[C@@H]3C(=O)O [GA, Gibberellic acid]",solubility of GA in the solvent blends compared with ethyl lactate alone,[1]; 80:20 (w/w) ethyl lactate with propylene glycol or glycerol,twice as much
same,amount of GA dissolved in glycerol,"[1]; glycerol alone, solution very viscous and difficult to mix",a small amount
same,effect of mild heating on dissolution of GA in ethyl lactate,[1]; mild heating to 60° C.,did not increase the dissolution
same,amount of GA dissolved in propylene glycol,"[1]; propylene glycol alone, solution very viscous and difficult to mix",a small amount
same,solubility of GA in ethyl lactate alone,[1]; room temperature,approximately 2 % (w/w)
CCOC(=O)C(C)O (centres unmarked) [ethyl lactate],phytotoxicity (plant injury),[2],no evidence of phytotoxicity
same,phytotoxicity (plant injury),apple trees,no evidence of phytotoxicity
gibberellin,effect on flowering,dwarf morning glory; 2 to 20 micrograms,inhibits flowering
same,effect on flowering,dwarf morning glory; application of 0.02 micrograms,promotes flowering
same,effect on shoot length,pea seedlings; ten micrograms applied at 3 days old,nearly doubled shoot length
same,effect on shoot length,"pea seedlings; ten micrograms, 9 day old seedlings",barely affected
